Results published in patent US5455222A, “1-substituted-5-thiomethylthiocyanato-1H-tetrazoles, compositions containing them and their use as antimicrobial and marine antifouling agents” (The Dow Chemical Company, priority 1994, dated 1995).
In brackets after ≈: the same amount, converted by molar mass.

Experiments:
Bacillus subtilis (Bs) = experiment: Minimum inhibitory concentration (MIC), bacteria in nutrient agar; type: cell-based, Bacillus subtilis ATCC 8473; conditions: 48 hours
Experimental: (§1) The minimum inhibitory concentration (MIC) for the compounds listed in Table I is determined for 9 bacteria, using nutrient agar, and 7 yeast and fungi, using malt yeast agar. A one percent solution of the test compound is prepared in a mixture of acetone and water.
(§2) Nutrient agar is prepared at pH 6.8, representing a neutral medium, and at pH 8.2, representing an alkaline medium. The nutrient agars are prepared by adding 23 g of nutrient agar to one liter of deionized water. In addition, the alkaline medium is prepared by adjusting a 0.04M solution of N-[tris-(hydroxymethyl)methyl]glycine buffered deionized water with concentrated sodium hydroxide to a pH of 8.5.
(§3) The test tubes containing the agar are cooled in a water bath until the temperature of the agar is 48° C. Then, an appropriate amount of the one percent solution of the test compound is added (except in the controls where no compound is added) to the respective test tubes so that the final concentrations are 500, 250, 100, 50, 25, 10, 5, 2.5, 1.0 and zero parts per million of the test compound in the agar, thus having a known concentration of test compound dispersed therein. The contents of the test tubes are then transferred to respective petri plates. After drying for 24 hours, the petri plates containing nutrient agar are inoculated with bacteria and those containing malt yeast agar are inoculated with yeast and fungi.
(§4) The inoculation with bacteria is accomplished by using the following procedure. Twenty-four hour-cultures of each of the bacteria are prepared by incubating the respective bacteria in tubes containing nutrient broth for 24 hours at 30° C. in a shaker. Dilutions of each of the 24 hour-cultures are made so that nine separate suspensions (one for each of the nine test bacteria) are made, each containing 10^8 colony forming units (CFU) per mL of suspension of a particular bacteria. Aliquots of 0.3 mL of each of the bacterial suspensions are used to fill the individual wells of Steer's Replicator. For each microbial suspension, 0.3 mL was used to fill three wells (i.e., three wells of 0.3 mL each) so that for the nine different bacteria, 27 wells are filled. The Steer's Replicator is then used to inoculate both the neutral and alkaline pH nutrient agar petri plates.
(§5) The inoculated petri plates are incubated at 30° C. for 48 hours and then read to determine if the test compound which is incorporated into the agar prevented growth of the respective bacteria.
(§6) Table II lists the bacteria, yeast and fungi used in the MIC test described above along with their respective American Type Culture Collection (ATCC) identification numbers.
(§7) In Tables III and IV, the MIC values of the compounds described in Table I as compared to the MIC of a standard commercial preservative (with 1-(3-chloroallyl)-3,5,7-triaza-1-azoniaadamantane chloride as the active agent and referred to in Tables III and IV as "STANDARD I") are set forth for the bacteria organisms and yeast/fungi organisms which are listed in Table II.

[1] = system: Enterobacter aerogenes (Ea); experiment: as above; type: cell-based, Enterobacter aerogenes ATCC 13048; conditions: Klebsiella aerogenes, 48 hours
Experimental: as §1, §2, §3, §4, §5, §6, §7

Escherichia coli (Ec) = experiment: as above; type: cell-based, Escherichia coli ATCC 11229; conditions: 48 hours
Experimental: as §1, §2, §3, §4, §5, §6, §7

[2] = system: Klebsiella pneumoniae (Kp); experiment: as above; type: cell-based, Klebsiella pneumoniae ATCC 8308; conditions: 48 hours
Experimental: as §1, §2, §3, §4, §5, §6, §7

Proteus vulgaris (Pv) = experiment: as above; type: cell-based, Proteus vulgaris ATCC 881; conditions: 48 hours
Experimental: as §1, §2, §3, §4, §5, §6, §7

[3] = system: Pseudomonas aeruginosa (PRD-10); experiment: as above; type: cell-based, Pseudomonas aeruginosa ATCC 15442; conditions: 48 hours
Experimental: as §1, §2, §3, §4, §5, §6, §7

[4] = system: Salmonella choleraesuis (Sc); experiment: as above; type: cell-based, Salmonella choleraesuis ATCC 10708; conditions: Salmonella enterica, 48 hours
Experimental: as §1, §2, §3, §4, §5, §6, §7

[5] = system: Staphylococcus aureus (Sa); experiment: as above; type: cell-based, Staphylococcus aureus ATCC 6538; conditions: 48 hours
Experimental: as §1, §2, §3, §4, §5, §6, §7

Aspergillus niger (An) = experiment: Minimum inhibitory concentration (MIC), yeast/fungi in malt yeast agar; type: cell-based, Aspergillus niger ATCC 16404; conditions: 30° C., 72 hours for fungi
Experimental: as §1
(§8) Malt yeast agar is prepared by adding 3 g yeast extract and 45 g malt agar per liter of deionized water. The specific agar is dispensed in 30 mL aliquots into 25×200 mm test tubes, capped and autoclaved for 15 minutes at 115° C.
as §3
(§9) The inoculation with the yeast and fungi is accomplished as follows. Cultures of yeast and fungi are incubated for seven days on malt yeast agar at 30° C. These cultures are used to prepare suspensions by the following procedure. A suspension of each organism is prepared by adding 10 mL of sterile saline and 10 microliters of octylphenoxy polyethoxy ethanol to the agar slant of yeast or fungi. The sterile saline/octylphenoxy polyethoxy ethanol solution is then agitated with a sterile swab to suspend the microorganism grown on the slant. Each resulting suspension is diluted into sterile saline (1 part suspension to 9 parts sterile saline). Aliquots of these dilutions are placed in individual wells of Steer's Replicator and petri plates inoculated as previously described. The petri plates are incubated at 30° C. and read after 48 hours for yeast and 72 hours for fungi.
as §6, §7

Candida albicans (Ca) = experiment: as above; type: cell-based, Candida albicans ATCC 10231; conditions: 30° C., 48 hours for yeast
Experimental: as §1, §8, §3, §9, §6, §7

[6] = system: Penicillium chrysogenum (Pc); experiment: as above; type: cell-based, Penicillium chrysogenum ATCC 9480; conditions: 30° C., 72 hours for fungi
Experimental: as §1, §8, §3, §9, §6, §7

[7] = system: Saccharomyces cerevisiae (Sc); experiment: as above; type: cell-based, Saccharomyces cerevisiae ATCC 4105; conditions: 30° C., 48 hours for yeast
Experimental: as §1, §8, §3, §9, §6, §7

Trichoderma viride (Tv) = experiment: as above; type: cell-based, Trichoderma viride ATCC 8678; conditions: 30° C., 72 hours for fungi
Experimental: as §1, §8, §3, §9, §6, §7

[8] = system: Aureobasidium pullulan (Ap); experiment: as above; type: cell-based, Aureobasidium pullulan ATCC 16622; conditions: 30° C., read after 48 hours for yeast and 72 hours for fungi
Experimental: as §1, §8, §3, §9, §6, §7

Fusarium oxysporum (Fo) = experiment: as above; type: cell-based, Fusarium oxysporum ATCC 48112; conditions: 30° C., 72 hours for fungi
Experimental: as §1, §8, §3, §9, §6, §7

Structure (SMILES)	MIC (Bacillus subtilis (Bs); nutrient agar pH 6.8, 30° C.) [µg/mL]	MIC (Bacillus subtilis (Bs); nutrient agar pH 8.2, 30° C.) [µg/mL]	MIC ([1]; nutrient agar pH 6.8, 30° C.) [µg/mL]	MIC ([1]; nutrient agar pH 8.2, 30° C.) [µg/mL]	MIC (Escherichia coli (Ec); nutrient agar pH 6.8, 30° C.) [µg/mL]	MIC (Escherichia coli (Ec); nutrient agar pH 8.2, 30° C.) [µg/mL]	MIC ([2]; nutrient agar pH 6.8, 30° C.) [µg/mL]	MIC ([2]; nutrient agar pH 8.2, 30° C.) [µg/mL]	MIC (Proteus vulgaris (Pv); nutrient agar pH 6.8, 30° C.) [µg/mL]	MIC (Proteus vulgaris (Pv); nutrient agar pH 8.2, 30° C.) [µg/mL]	MIC ([3]; nutrient agar pH 6.8, 30° C.) [µg/mL]	MIC ([3]; nutrient agar pH 8.2, 30° C.) [µg/mL]	MIC ([4]; nutrient agar pH 6.8, 30° C.) [µg/mL]	MIC ([4]; nutrient agar pH 8.2, 30° C.) [µg/mL]	MIC ([5]; nutrient agar pH 6.8, 30° C.) [µg/mL]	MIC ([5]; nutrient agar pH 8.2, 30° C.) [µg/mL]	MIC (Aspergillus niger (An)) [µg/mL]	MIC (Candida albicans (Ca)) [µg/mL]	MIC [6] [µg/mL]	MIC [7] [µg/mL]	other results
N#CSCSc1nnnn1-c1ccc(Br)cc1 [IV, 1-(4-Bromophenyl)-5-thiomethylthiocyanato-1H-tetrazole]	< 10	25 (≈ 76.2 µM)	500 (≈ 1520 µM)	500 (≈ 1520 µM)	500 (≈ 1520 µM)	500 (≈ 1520 µM)	500 (≈ 1520 µM)	500 (≈ 1520 µM)	500 (≈ 1520 µM)	500 (≈ 1520 µM)	500 (≈ 1520 µM)	500 (≈ 1520 µM)	500 (≈ 1520 µM)	500 (≈ 1520 µM)	500 (≈ 1520 µM)	500 (≈ 1520 µM)	< 10	25 (≈ 76.2 µM)	< 10	< 10	MIC (Trichoderma viride (Tv)): 25 µg/mL (≈ 76.2 µM); MIC [8]: < 10 µg/mL; MIC (Fusarium oxysporum (Fo)): < 10 µg/mL
CC(C)(C)c1ccc(-n2nnnc2SCSC#N)cc1 [IX, 1-(tertiary-Butylphenyl)-5-thiomethylthiocyanato-1H-tetrazole]	25 (≈ 81.9 µM)	50 (≈ 164 µM)	500 (≈ 1640 µM)	500 (≈ 1640 µM)	50 (≈ 164 µM)	250 (≈ 819 µM)	250 (≈ 819 µM)	100 (≈ 327 µM)	250 (≈ 819 µM)	100 (≈ 327 µM)	500 (≈ 1640 µM)	500 (≈ 1640 µM)	50 (≈ 164 µM)	100 (≈ 327 µM)	50 (≈ 164 µM)	50 (≈ 164 µM)	5 (≈ 16.4 µM)	100 (≈ 327 µM)	2.5 (≈ 8.19 µM)	10 (≈ 32.7 µM)	MIC (Trichoderma viride (Tv)): 100 µg/mL (≈ 327 µM); MIC [8]: 2.5 µg/mL (≈ 8.19 µM); MIC (Fusarium oxysporum (Fo)): 25 µg/mL (≈ 81.9 µM)
N#CSCSc1nnnn1-c1ccc(F)cc1 [V, 1-(4-Fluorophenyl)-5-thiomethylthiocyanato-1H-tetrazole]	< 10	50 (≈ 187 µM)	250 (≈ 935 µM)	500 (≈ 1870 µM)	100 (≈ 374 µM)	500 (≈ 1870 µM)	100 (≈ 374 µM)	250 (≈ 935 µM)	50 (≈ 187 µM)	250 (≈ 935 µM)	50 (≈ 187 µM)	100 (≈ 374 µM)	100 (≈ 374 µM)	250 (≈ 935 µM)	25 (≈ 93.5 µM)	50 (≈ 187 µM)	5 (≈ 18.7 µM)	25 (≈ 93.5 µM)	2.5 (≈ 9.35 µM)	5 (≈ 18.7 µM)	MIC (Trichoderma viride (Tv)): 25 µg/mL (≈ 93.5 µM); MIC [8]: 2.5 µg/mL (≈ 9.35 µM); MIC (Fusarium oxysporum (Fo)): 5 µg/mL (≈ 18.7 µM)
